Measurements published in patent publication US8987243B2, “11-(2-pyrrolidin-1-yl-ethoxy)-14,19-dioxa-5,7,26-triaza-tetracyclo[19.3.1.1(2,6).1(8,12)]heptacosa-maleate salt” (CTI Biopharma Corp., priority 2008, dated 2015).
Structures can show the parent of a compound that is named as a salt.

What was measured:
Assay type in all cases: physicochemical
[1] = Stress tests: storage at elevated temperature and humidity, analysed by XRPD
Procedure: The group three material was stressed under conditions which might cause it to convert to group one material or, indeed, another hydrated or polymorphic form. Thus samples were stored at 40° C./75% RH and also at 60° C./96% RH and analysed at regular intervals by XRPD.
The stability of the maleate salt form A material was tested in harsher conditions, when the samples were kept for a week in the humidity chamber at 60° C. and 96% RH.
The samples of both hydrochloride (comparative) and maleate salts were subjected to X-ray diffraction to determine the characteristic X-ray diffraction pattern. The conditions used were as follows: X-Ray Powder Diffraction patterns were collected on a Siemens D5000 diffractometer using Cu Kα radiation (40 kV, 40 mA), θ-θ goniometer, divergence of V20 and receiving slits, a graphite secondary monochromator and a scintillation counter. The instrument is performance checked using a certified Corundum standard (NIST 1976).

[2] = Gravimetric Vapour Sorption (GVS), with XRPD post GVS; conditions: for solid form / crystalline pattern by XRPD post GVS: compared with starting material
[3] = Thermal gravimetric analysis (TGA); conditions: for water lost in the first phase of the TGA: hydrochloride
Procedure: The samples of both hydrochloride (comparative) and maleate salts were subjected to thermal gravimetric analysis and differential scanning calorimetry under the following conditions. DSC data were collected on a TA Instruments Q2000 equipped with a 50 position auto-sampler. The instrument was calibrated for energy and temperature calibration using certified indium. Typically 0.5-3 mg of each sample, in a pin-holed aluminium pan, was heated at 10° C.·min^−1 from 25° C. to 270° C.
TGA data were collected on a TA Instruments Q500 TGA, equipped with a 16 position auto-sampler. The instrument was temperature calibrated using certified Alumel. Typically 5-30 mg of each sample was loaded onto a pre-tared platinum crucible and aluminium DSC pan, and was heated at 10° C.·min^−1 from ambient temperature to 300° C. A nitrogen purge at 60 ml·min^−1 was maintained over the sample. The instrument control software was Thermal Advantage v4.6.6 and the data were analysed using Universal Analysis v4.3A. Alternatively, TGA data were collected on a Mettler TGA/SDTA 851e equipped with a 34 position auto-sampler. The instrument was temperature calibrated using certified indium. Typically 5-30 mg of each sample was loaded onto a pre-weighed aluminium crucible and was heated at 10° C.·min^−1 from ambient temperature to 300° C. A nitrogen purge at 50 ml·min^−1 was maintained over the sample. The instrument control and data analysis software was STARe v9.01.

[4] = Maturation studies in 27 solvents, solids analysed by XRPD; conditions: 4 h heat/cool cycles 50° C./r.t., 24 h
Procedure: In order to determine the propensity of polymorphism for the maleate salt the material was maturated in 27 different solvents. A small amount of solid was slurried with the corresponding solvent (see Table 4 below) and stored in the incubator and subjected to 4 h-heat/cool cycles at 50° C./r.t. for 24 h. The solvents were then removed under vacuum, and the remaining solids analysed by XRPD.

[5] = Variable temperature X-ray diffraction; conditions: variable temperature XRPD
Procedure: Samples run under non-ambient conditions were mounted on a silicon wafer with heat-conducting compound. The sample was then heated to the appropriate temperature at ca. 10° C.·min^−1 and subsequently held isothermally for ca 2 minutes before data collection was initiated. In order to probe the stability of the samples of the maleate salts variable temperature X-ray diffraction was carried out. Thus, the salts were scanned under X-ray diffraction conditions at a series of temperatures and the characteristic peaks determined.

Q: For C1=CCOCc2cc(ccc2OCCN2CCCC2)Nc2nccc(n2)-c2cccc(c2)COC1.Cl [Batch HCl 6, 11-(2-pyrrolidin-1-yl-ethoxy)-14,19-dioxa-5,7,26-triaza-tetracyclo[19.3.1.1(2,6).1(8,12)]heptacosa-1(25),2(26),3,5,8,10,12(27),16,21,23-decaene hydrochloride], which “solid form by XRPD after storage” value ([1]; 40° C./75% RH, 0 hrs) is on record?
A: Group three.

Q: And the “solid form by XRPD after storage” value ([1]; 40° C./75% RH, 24 hrs)?
A: Group three.

Q: What about the “solid form by XRPD after storage” value ([1]; 40° C./75% RH, 48 hrs) of the same compound?
A: Group three.

Q: What about the “solid form by XRPD after storage” value ([1]; 40° C./75% RH, 72 hrs) of the same compound?
A: Group one.

Q: And the “solid form by XRPD after storage” value ([1]; 60° C./96% RH, 0 hrs)?
A: Group three.

Q: And the “solid form by XRPD after storage” value ([1]; 60° C./96% RH, 24 hrs)?
A: Group one.

Q: And the “mass gained on going from 40% RH to 90% RH (water absorption)” value ([2]; GVS)?
A: 1.6%

Q: And the “mass lost on going from 90% RH to dryness” value ([2]; GVS, hydrochloride)?
A: 2.4%

Q: What about the “solid form / crystalline pattern by XRPD post GVS” value (“solid form / crystalline pattern” below) ([2]; hydrochloride) of the same compound?
A: unchanged

Q: What about the “weight loss in the TGA” value ([3]; until degradation at around 240° C.) of the same compound?
A: very little weight loss

Q: With C1=C/COCc2cc(ccc2OCCN2CCCC2)Nc2nccc(n2)-c2cccc(c2)COC/1 [maleate salt, 11-(2-pyrrolidin-1-yl-ethoxy)-14,19-dioxa-5,7,26-triaza-tetracyclo[19.3.1.1(2,6).1(8,12)]heptacosa-1(25),2(26),3,5,8,10,12(27),16,21,23-decaene] as the compound, how does the “Solid Form after maturation” value ([4]; 1,4-dioxane) read?
A: Form A

Q: And the “Solid Form after maturation” value ([4]; 1-butanol)?
A: Form A

Q: And the “Solid Form after maturation” value ([4]; 1-pentanol)?
A: Form A

Q: What about the “Solid Form after maturation” value ([4]; 1-propanol) of the same compound?
A: Form A

Q: And the “Solid Form after maturation” value ([4]; 2-butanol)?
A: Form A

Q: And the “Solid Form after maturation” value ([4]; 2-methoxy ethanol)?
A: Form A

Q: What about the “Solid Form after maturation” value ([4]; 3-methyl-1-butanol) of the same compound?
A: Form A

Q: And the “solid forms identified after maturation, all cases” value ([4]; 27 different solvents)?
A: only one solid form

Q: What about the “Solid Form after maturation” value ([4]; Acetonitrile) of the same compound?
A: Form A

Q: And the “Solid Form after maturation” value ([4]; Cyclohexane)?
A: Form A

Q: And the “Solid Form after maturation” value ([4]; DMSO)?
A: Form A

Q: What about the “Solid Form after maturation” value ([4]; Dicloromethane) of the same compound?
A: Form A

Q: And the “Solid Form after maturation” value ([4]; Ethanol)?
A: Form A

Q: And the “Solid Form after maturation” value ([4]; Ethyl acetate)?
A: Form A

Q: What about the “Solid Form after maturation” value ([4]; Heptane) of the same compound?
A: Form A

Q: What about the “Solid Form after maturation” value ([4]; IPA) of the same compound?
A: Form A

Q: And the “Solid Form after maturation” value ([4]; Isobutyl acetate)?
A: Form A

Q: What about the “Solid Form after maturation” value ([4]; Isopropyl acetate) of the same compound?
A: Form A

Q: What about the “Solid Form after maturation” value ([4]; Methyl isobutyl ketone) of the same compound?
A: Form A

Q: And the “Solid Form after maturation” value ([4]; Methylethyl ketone)?
A: Form A

Q: And the “Solid Form after maturation” value ([4]; Nitromethane)?
A: Form A

Q: What about the “Solid Form after maturation” value ([4]; Propyl acetate) of the same compound?
A: Form A

Q: What about the “Solid Form after maturation” value ([4]; TBME) of the same compound?
A: Form A

Q: What about the “Solid Form after maturation” value ([4]; Tetrahydrofuran) of the same compound?
A: Form A

Q: What about the “Solid Form after maturation” value ([4]; Toluene) of the same compound?
A: Form A

Q: And the “Solid Form after maturation” value ([4]; Water)?
A: Form A

Q: And the “Solid Form after maturation” value ([4]; acetone)?
A: Form A

Q: And the “Solid Form after maturation” value ([4]; methanol)?
A: Form A

Q: What about the “changes in the crystalline pattern after storage” value ([1]; a week in the humidity chamber at 60° C. and 96% RH) of the same compound?
A: no changes

Q: And the hygroscopicity ([2]; GVS)?
A: low hygroscopicity

Q: And the “weight taken up in water” value ([2]; GVS, between 0 and 90% RH)?
A: less than 0.6%

Q: And the “solid form / crystalline pattern” value [2]?
A: No changes

Q: And the “change of X-ray diffraction pattern with temperature” value [5]?
A: no change

Q: What about the “weight loss in the TGA” value ([3]; until the salt melts with decomposition at 200° C.) of the same compound?
A: no weight loss

Q: Which “mass gained on going from 40% RH to 90% RH (water absorption)” value ([2]; GVS) does the source give for C1=CCOCc2cc(ccc2OCCN2CCCC2)Nc2nccc(n2)-c2cccc(c2)COC1.Cl [Batch HCl 4, 11-(2-pyrrolidin-1-yl-ethoxy)-14,19-dioxa-5,7,26-triaza-tetracyclo[19.3.1.1(2,6).1(8,12)]heptacosa-1(25),2(26),3,5,8,10,12(27),16,21,23-decaene hydrochloride] here?
A: 1.6%

Q: And the “mass lost on going from 90% RH to dryness” value ([2]; GVS, hydrochloride)?
A: 2.8%

Q: What about the “solid form / crystalline pattern” value ([2]; hydrochloride) of the same compound?
A: unchanged

Q: What about the mass lost ([3]; TGA, between ambient and 108° C.) of the same compound?
A: 6.5%

Q: Which results are given for C1=CCOCc2cc(ccc2OCCN2CCCC2)Nc2nccc(n2)-c2cccc(c2)COC1.Cl [Batch HCl 1, 11-(2-pyrrolidin-1-yl-ethoxy)-14,19-dioxa-5,7,26-triaza-tetracyclo[19.3.1.1(2,6).1(8,12)]heptacosa-1(25),2(26),3,5,8,10,12(27),16,21,23-decaene hydrochloride]?
A: mass regained on going to 40% RH ([2]; GVS, after dryness): 2%; adsorption of water in the initial adsorption cycle ([2]; GVS, at 90% RH): 5.5%; total gain of mass ([2]; GVS, whole experiment): 2%; water content after the gain ([2]; GVS, corresponds to a dihydrate): 6.5%; mass lost on going from 90% RH to dryness ([2]; GVS, hydrochloride): 5%; two stage weight loss, total ([3]; TGA, up to 100° C.): 4.5%

Q: For C1=CCOCc2cc(ccc2OCCN2CCCC2)Nc2nccc(n2)-c2cccc(c2)COC1.Cl [Batch HCl 3, 11-(2-pyrrolidin-1-yl-ethoxy)-14,19-dioxa-5,7,26-triaza-tetracyclo[19.3.1.1(2,6).1(8,12)]heptacosa-1(25),2(26),3,5,8,10,12(27),16,21,23-decaene hydrochloride], which “total weight lost in the TGA” value ([3]; TGA) is on record?
A: 3.4%

Q: And the “another loss” value ([3]; TGA, at 165° C.)?
A: 1.97%

Q: And the “water lost in the first phase of the TGA” value ([3]; TGA)?
A: 1.5%

Q: With C1=CCOCc2cc(ccc2OCCN2CCCC2)Nc2nccc(n2)-c2cccc(c2)COC1.Cl [Batch HCl 2, 11-(2-pyrrolidin-1-yl-ethoxy)-14,19-dioxa-5,7,26-triaza-tetracyclo[19.3.1.1(2,6).1(8,12)]heptacosa-1(25),2(26),3,5,8,10,12(27),16,21,23-decaene hydrochloride] as the compound, how does the “water lost in the first phase of the TGA” value ([3]; TGA) read?
A: 5.6%
